From US20240024313A1, “BIARYL ETHER UREA COMPOUNDS” (Jazz Pharmaceuticals Ireland Limited, priority 2022, published 2024) come the findings set out here.

Data set [1] has as its target T1, Human FAAH (Homo sapiens, UniProt O00519).
T1 construct: Recombinant human FAAH encoding full length amino acids were expressed in insect cells; made in house; host or cells: insect cells (baculovirus infection)
T1 sequence (O00519 1-579): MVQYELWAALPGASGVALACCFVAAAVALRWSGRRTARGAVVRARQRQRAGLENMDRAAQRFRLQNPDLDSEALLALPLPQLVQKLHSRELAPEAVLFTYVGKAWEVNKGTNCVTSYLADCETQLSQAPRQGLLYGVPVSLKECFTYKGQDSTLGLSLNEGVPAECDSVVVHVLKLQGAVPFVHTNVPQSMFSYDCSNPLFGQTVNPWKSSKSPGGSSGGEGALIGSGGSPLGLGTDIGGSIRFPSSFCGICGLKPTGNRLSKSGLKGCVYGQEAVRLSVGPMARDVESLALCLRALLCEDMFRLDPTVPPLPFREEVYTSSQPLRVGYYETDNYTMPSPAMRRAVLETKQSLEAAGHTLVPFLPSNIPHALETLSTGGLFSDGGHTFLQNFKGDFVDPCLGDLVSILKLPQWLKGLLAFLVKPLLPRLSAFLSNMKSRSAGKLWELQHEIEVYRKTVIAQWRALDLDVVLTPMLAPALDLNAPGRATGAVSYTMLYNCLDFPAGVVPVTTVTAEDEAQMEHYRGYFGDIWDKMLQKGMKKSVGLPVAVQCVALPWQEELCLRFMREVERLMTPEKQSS
Put plainly: Fluorometric-based Human FAAH Inhibition Assay. The format is biochemical. Particulars: recombinant human FAAH 125 nM, 1 hour preincubation, AMC Arachidonoyl Amide substrate. How it is done:
Human FAAH protein was prepared using the following method: Recombinant human FAAH encoding full length amino acids were expressed in insect cells using baculovirus infection as C-terminal (non-cleavable) 8×His tag fusion protein. Protein was supplied as cell lysate: resuspended 100,000×g pellet at 5.12 mg/ml a buffer containing 20 mM HEPES, pH 7.8, 150 mM NaCl, 1 mM EDTA, 1 mM DTT, 0.5% CHAPS. Specific activity was determined to be 844 U/mg.
Fluorometric-based Human FAAH Inhibition Assay was performed using the following method:
(§1) Assays were performed in standard-volume, black, non-binding 384-well plates (Corning #3654). All additions were carried out using the Agilent Bravo Automated Liquid Handler using an 384ST pipetting head.
FAAH reactions contained 125 nM Fatty Acid Amide Hydrolase (human, recombinant) diluted in an assay buffer containing Tris-EDTA, pH 9.0 at ambient temperature. To obtain 125 nM FAAH per well, a working stock was made at 312.5 nM by diluting 94 μL of 79.63 μM enzyme to 24 mL of assay buffer, then adding 20 μL to each well. Using the mother plates (prepared at 1000× in DMSO), the Agilent Bravo performed a 1:100 dilution step in assay buffer prior to adding 5 μL to each well for an additional 1:10 dilution.
Plates were incubated at room-temperature for 1 hour.
To initialize the reaction, a final concentration of […] of AMC Arachidonoyl Amide was added to each well. To obtain this concentration, a working stock was made at […] by adding 960 μL of 0.1 mM AMC stock to 24 mL of assay buffer, then 25 μL was added to each well. This stock was made at 4% DMSO for a final assay concentration contribution of 2% DMSO.
(§2) The total reaction volume per well was 50 μL. The reactions were allowed to proceed at 37° C. for 30 minutes with fluorescence monitored using a Cytation 5 Multimode imaging plate reader (BioTek Instruments) using excitation and emission wavelengths of 350/10 nm and 455/10 nm, respectively. Rates (RFU/min) were calculated from the linear portion of the reaction curves using a linear least squares curve fitting method using Gen5 v3.10. Calculated rates were then normalized to DMSO control and presented as percentages. Data were graphed and statistics were performed using GraphPad Prism v9.0.1.
Data for the Fluorometric-based Human FAAH Inhibition Assay are recited in Table 2 and in FIG. 1.

Data set [2] has as its target T2, Rat FAAH (Rattus norvegicus, UniProt P97612).
T2 construct: truncated rat FAAH encoding amino acids residues 30-579; 6xHis (N); TEV cleavage site (N); made in house; host or cells: E. coli (pLysS cells)
T2 sequence (P97612 30-579): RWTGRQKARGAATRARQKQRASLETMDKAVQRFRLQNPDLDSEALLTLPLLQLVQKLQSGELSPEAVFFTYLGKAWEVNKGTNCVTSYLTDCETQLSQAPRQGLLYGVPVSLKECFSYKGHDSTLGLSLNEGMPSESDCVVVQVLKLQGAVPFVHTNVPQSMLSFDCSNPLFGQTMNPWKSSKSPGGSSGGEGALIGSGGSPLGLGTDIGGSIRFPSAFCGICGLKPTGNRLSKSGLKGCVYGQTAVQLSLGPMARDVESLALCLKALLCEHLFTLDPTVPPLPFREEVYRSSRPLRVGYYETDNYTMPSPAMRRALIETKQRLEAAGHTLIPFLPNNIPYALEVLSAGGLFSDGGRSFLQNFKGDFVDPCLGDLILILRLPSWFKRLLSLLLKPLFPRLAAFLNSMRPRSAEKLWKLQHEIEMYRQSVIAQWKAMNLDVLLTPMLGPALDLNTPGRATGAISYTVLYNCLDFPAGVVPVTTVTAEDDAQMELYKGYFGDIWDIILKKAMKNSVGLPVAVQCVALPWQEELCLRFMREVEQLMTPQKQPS
Put plainly: Fluorometric-based Rat FAAH Inhibition Assay. Particulars: recombinant rat FAAH 20 nM, 1 hour preincubation, 2 μM AMC Arachidonoyl Amide substrate. The format is biochemical. The protocol:
Rat FAAH protein was prepared using the following method: Recombinant truncated rat FAAH encoding amino acids residues 30-579 were expressed in E. coli as NH2-terminal 6×HIS-tag and a TEV-cleavage site fusion protein. 6 L pLysS cells were induced to express FAAH. Cells were lysed and centrifuged. The insoluble pellet was resuspended using a Dounce homogenizer in CHAPS-containing buffer and allowed to stir at 4° C. for 1 hour. The resuspended pellet was then centrifuged and rat FAAH in the clarified supernatant was purified by IMAC. The purest protein fractions were pooled, and buffer exchanged into storage buffer by dialysis. The protein concentration was determined by Bradford assay aliquots were flash frozen in liquid nitrogen.
Fluorometric-based Rat FAAH Inhibition Assay was performed using the following method:
as §1
FAAH reactions contained 20 nM Fatty Acid Amide Hydrolase (rat, recombinant) diluted in an assay buffer containing Tris-EDTA, pH 9.0 at ambient temperature. To obtain 20 nM FAAH per well, a working stock was made at 50 nM by diluting 150 μL of 7.93 μM enzyme to 24 mL of assay buffer, then adding 20 μL to each well. Using the mother plates (prepared at 1000× in DMSO), the Agilent Bravo performed a 1:100 dilution step in assay buffer prior to adding 5 μL to each well for an additional 1:10 dilution.
Plates were incubated at room temperature for 1 hour.
To initialize the reaction a final concentration of 2 μM of AMC Arachidonoyl Amide was added to each well. To obtain this concentration a working stock was made at 4 μM by adding 960 μL of 0.1 mM AMC stock to 24 mL of assay buffer, then 25 μL was added to each well. This stock was made at 4% DMSO for a final assay concentration contribution of 2% DMSO.
as §2
Data for the Fluorometric-based Rat FAAH Inhibition Assay are recited in Table 2 and in FIG. 2.

Data set [3] is described as follows: Phase 1 crossover pharmacokinetic study of Compound of Formula (II) formulations in healthy adult participants. The conditions noted are these: human, in vivo, oral, preliminary data; for AUC(0-t) / Cmax: 4 mg. How it is done: Partial preliminary data on Compound of Formula (II), Compound B, and Compound C) were obtained from a phase 1, single-center, open-label, randomized, 3-period, 2-sequence crossover study to characterize the PK, safety, and tolerability of Compound of Formula (II) formulations (capsule vs tablet) in healthy adult participants. In Periods 1 and 2, participants were randomized to receive 4 mg Compound of Formula (II) capsule formulation or 4 mg Compound of Formula (II) tablet formulation.
Pharmacokinetic parameters for compound of Formula (II), Compound B, and Compound C following single dose of 4 mg of compound of Formula (II) are provided in Table 3. Pharmacokinetic parameters for compound of Formula (II), Compound B, and Compound C following multiple doses of 4 mg of compound of Formula (II) are provided in Table 4.

[4] abbreviates: following multiple doses of 4 mg of compound of Formula (II).
The mark [5] stands for this setting: following single dose of 4 mg of compound of Formula (II).

The term IC50 denotes the point on the concentration scale where inhibition reaches its midpoint. As usually defined, the AUC(0-t) is exposure summed from dosing to a finite time, without extrapolation to infinity. Read a low AUC(0-t) as low exposure. The term Cmax denotes the maximum level reached in the sampled fluid or tissue. The AUC is concentration integrated over time. The term Tmax denotes the time at which the peak concentration occurs. As usually defined, the half-life is the time in which the quantity being followed falls by half. In the case of `O=C(O)CCC(=O)NC(=O)N1CCC(=Cc2cccc(Oc3ccc(C(F)(F)F)cn3)c2)CC1` [Compound C, 4-oxo-4-(4-(3-((5-(trifluoromethyl)pyridin-2-yl)oxy)benzylidene)piperidine-1-carboxamido)butanoic acid], the IC50 in data set [1] was found to be 758 ± 11.2 nM. The IC50 in data set [2] was determined as 39.6 ± 5.84 nM. Besides, in data set [3] (setting [4]), the AUC(0-t) came to 281 ng·h/mL, the Cmax was 3.9 ng/mL, the AUC turned out to be 86 ng·h/mL and the Tmax was 8 h. For the same molecule, the half-life in data set [3] (setting [4]) was 40.4 h. Further, in data set [3] (setting [5]), the AUC(0-t) worked out at 1.1 ng·h/mL and the Cmax came out at 0.4 ng/mL.
As for `O=C(Nc1cccnn1)N1CCC(=Cc2cccc(Oc3ccc(C(F)(F)F)cn3)c2)CC1` [Compound of Formula (II), reference compound], the IC50 in data set [1] came out at 3.56 ± 0.67 nM. The IC50 in data set [2] worked out at 10.2 ± 1.17 nM. In data set [3] (setting [4]), the AUC(0-t) stood at 1340 ng·h/mL, the Cmax is 46.6 ng/mL, the AUC was determined as 625 ng·h/mL and the Tmax was 2 h. In addition, the half-life in data set [3] (setting [4]) was 32.2 h. In data set [3] (setting [5]), this molecule returned an AUC(0-t) of 138 ng·h/mL and a Cmax of 31.3 ng/mL.
Take `O=C(Nc1cccnn1)N1CC/C(=C\c2cccc(Oc3ccc(C(F)(F)F)cn3)c2)[C@H](O)C1` [Compound A-SE, (S,E)-3-hydroxy-N-(pyridazin-3-yl)-4-(3-((5-(trifluoromethyl)pyridin-2-yl)oxy)benzylidene)piperidine-1-carboxamide]: the IC50 in data set [1] was 439 ± 14.7 nM; in data set [2], 3720 ± 542 nM.
With `FC(F)(F)c1ccc(Oc2cccc(C=C3CCNCC3)c2)nc1` [Compound E, 2-(3-(piperidin-4-ylidenemethyl)phenoxy)-5-(trifluoromethyl)pyridine], in data set [1], the IC50 came to 34400 ± 24100 nM.
With `O=C1CCC(NC(=O)N2CCC(=Cc3cccc(Oc4ccc(C(F)(F)F)cn4)c3)CC2)=NN1` [Compound B, N-(6-oxo-1,4,5,6-tetrahydropyridazin-3-yl)-4-(3-((5-(trifluoromethyl)pyridin-2-yl)oxy)benzylidene)piperidine-1-carboxamide], in data set [1], the IC50 was found to be 12.4 ± 0.89 nM. Also, in data set [2], the IC50 stood at 85.2 ± 9.33 nM. For the same molecule, in data set [3] (setting [4]), the AUC(0-t) amounted to 906 ng·h/mL, the Cmax turned out to be 9.3 ng/mL, the AUC was 208 ng·h/mL and the Tmax came out at 24 h. Also, the half-life in data set [3] (setting [4]) was 85 h. In data set [3] (setting [5]), this molecule displayed an AUC(0-t) of 0.6 ng·h/mL and a Cmax of 0.3 ng/mL.
In the case of `O=C(Nc1cccnn1)N1CCC(O)(C(O)c2cccc(Oc3ccc(C(F)(F)F)cn3)c2)CC1` (centres unmarked) [Compound D, 4-hydroxy-4-(hydroxy(3-((5-(trifluoromethyl)pyridin-2-yl)oxy)phenyl)methyl)-N-(pyridazin-3-yl)piperidine-1-carboxamide], the IC50 was determined as 555 ± 84.4 nM in data set [1] and 3480 ± 654 nM in data set [2].
Regarding `O=C(Nc1cccnn1)N1CC/C(=C/c2cccc(Oc3ccc(C(F)(F)F)cn3)c2)[C@H](O)C1` [Compound A-SZ, (S,Z)-3-hydroxy-N-(pyridazin-3-yl)-4-(3-((5-(trifluoromethyl)pyridin-2-yl)oxy)benzylidene)piperidine-1-carboxamide], the IC50 in data set [1] was 300 ± 54.9 nM; in data set [2] it was 3290 ± 583 nM.
For `O=C(Nc1cccnn1)N1CC/C(=C/c2cccc(Oc3ccc(C(F)(F)F)cn3)c2)[C@@H](O)C1` [Compound A-RZ, (R,Z)-3-hydroxy-N-(pyridazin-3-yl)-4-(3-((5-(trifluoromethyl)pyridin-2-yl)oxy)benzylidene)piperidine-1-carboxamide], the IC50 in data set [1] came to 39.3 ± 2.89 nM; in data set [2], 170 ± 43 nM.
Take `O=C(Nc1cccnn1)N1CC/C(=C\c2cccc(Oc3ccc(C(F)(F)F)cn3)c2)[C@@H](O)C1` [Compound A-RE, (R,E)-3-hydroxy-N-(pyridazin-3-yl)-4-(3-((5-(trifluoromethyl)pyridin-2-yl)oxy)benzylidene)piperidine-1-carboxamide]: the IC50 in data set [1] was 9.01 ± 0.68 nM; in data set [2], 56.8 ± 16.6 nM.
